Columns and labels:
[1] = target: recombinant thioredoxin reductase 1 (TrxR1) (Homo sapiens (Human), UniProt Q16881); test: Inhibition of recombinant TrxR1 (DTNB assay); assay type: biochemical; conditions: 30 nM TrxR1, 250 μM NADPH, 15 minutes incubation, O.D. 412 nm, read-out: TrxR inhibition (IC50)
Description: (§1) Small molecule inhibition of recombinant thioredoxin reductase 1 (TrxR1) and gluthathione reductase (GR) was examined in 96-well plate format. 30 nM TrxR1 was incubated in the presence of 250 μM NADPH, 0.1 mg/ml BSA, and various concentrations of compound (1% DMSO final) in 50 mM Tris (pH 7.5) and 2 mM EDTA buffer for 15 minutes. Following the incubation period, 2 mM DTNB was added to each well and the change in O.D. at 412 nm was followed. Percent activity was determined using DMSO vehicle and no TrxR1 (blank) controls. 2 nM GR was incubated in the presence of 250 μM NADPH, 0.1 mg/ml BSA, and various concentrations of compounds (1% DMSO final) in 50 mM Tris (pH 7.5) and 2 mM EDTA buffer for 15 minutes. Following the incubation period, 1 mM GSSG was added to each well and the change in O.D. at 340 nm was followed. Percent activity was determined using DMSO vehicle and no GR (blank) controls.

[2] = target: recombinant gluthathione reductase (GR) (Homo sapiens (Human), UniProt P00390); test: Inhibition of recombinant GR (GSSG assay); assay type: biochemical; conditions: 2 nM GR, 250 μM NADPH, 15 minutes incubation, O.D. 340 nm
recombinant gluthathione reductase (GR), sequence (P00390 44-522): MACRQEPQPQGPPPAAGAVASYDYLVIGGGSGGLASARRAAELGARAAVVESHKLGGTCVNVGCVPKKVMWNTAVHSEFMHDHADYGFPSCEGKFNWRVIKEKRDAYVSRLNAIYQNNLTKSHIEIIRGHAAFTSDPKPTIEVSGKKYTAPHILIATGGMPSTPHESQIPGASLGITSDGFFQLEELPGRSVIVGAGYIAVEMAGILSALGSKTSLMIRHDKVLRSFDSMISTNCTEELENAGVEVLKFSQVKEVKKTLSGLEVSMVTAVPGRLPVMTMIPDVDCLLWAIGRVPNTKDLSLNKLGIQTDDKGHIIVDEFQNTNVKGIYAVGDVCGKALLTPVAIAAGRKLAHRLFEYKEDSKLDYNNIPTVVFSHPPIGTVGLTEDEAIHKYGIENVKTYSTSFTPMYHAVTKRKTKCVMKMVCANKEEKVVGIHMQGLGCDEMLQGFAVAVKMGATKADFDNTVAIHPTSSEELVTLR
Description: as §1

MDA-MB-231 cells = test: Breast cancer cell viability assay (Alamar Blue); assay type: cell-based; conditions: Homo sapiens, 72 hrs, 10% FBS media containing 25 nM selenite, 2000 cells/well
Description: MDA-MB-231 cells were plated 2000 cells/well in 96-well black optical plates in the presence of 10% FBS media containing 25 nM selenite. The following day cells were treated with various concentrations of compounds (0.1% DMSO final) and incubated for 72 hrs. After the incubation Alamar Blue reagent was added to each well and incubated for additional 3 hrs. Fluorescence was read ex:530 nm/em:590 nm, and percent of viability was determined using DMSO vehicle and no cell (blank) controls.

U-87 MG = test: Cancer cell viability assay (MTT), U-87 MG; assay type: cell-based; conditions: Homo sapiens, 72 hrs, 4000 cells/well, 10% FBS media
Description: (§2) Breast cancer and glioblastoma cell lines were plated 4000 cells/well in 96-well plates in the presence of 10% FBS media. The following day cells were treated with various concentrations of the compound of Example 1 (0.1% DMSO final) and incubated for 72 hrs. After the incubation An MTT assay was performed to access cell viability. Percent of viability was determined using DMSO vehicle and no cell (blank) controls.

MDA-MB-231 = test: Cancer cell viability assay (MTT), MDA-MB-231; assay type: cell-based; conditions: Homo sapiens, 72 hrs, 4000 cells/well, 10% FBS media
Description: as §2

MDA-MB-468 = test: Cancer cell viability assay (MTT), MDA-MB-468; assay type: cell-based; conditions: Homo sapiens, 72 hrs, 4000 cells/well, 10% FBS media
Description: as §2

recombinant thioredoxin reductase 1 (TrxR1), sequence (Q16881 151-649): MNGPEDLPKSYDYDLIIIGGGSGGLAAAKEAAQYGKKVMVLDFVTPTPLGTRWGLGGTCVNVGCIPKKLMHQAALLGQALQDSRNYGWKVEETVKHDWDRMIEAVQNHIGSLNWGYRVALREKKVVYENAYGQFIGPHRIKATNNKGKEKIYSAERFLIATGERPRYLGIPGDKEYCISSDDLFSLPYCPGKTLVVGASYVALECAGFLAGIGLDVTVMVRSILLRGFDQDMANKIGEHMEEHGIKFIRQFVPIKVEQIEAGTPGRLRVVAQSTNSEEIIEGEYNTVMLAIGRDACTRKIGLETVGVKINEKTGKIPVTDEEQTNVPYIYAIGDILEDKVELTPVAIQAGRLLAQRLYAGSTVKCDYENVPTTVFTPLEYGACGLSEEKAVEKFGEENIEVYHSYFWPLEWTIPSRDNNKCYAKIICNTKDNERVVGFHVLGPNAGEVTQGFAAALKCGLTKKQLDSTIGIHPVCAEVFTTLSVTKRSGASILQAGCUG

IC50 [1]: 0.00316 µM
IC50 [2]: 41.3 µM
IC50 (MDA-MB-231 cells): 2.99 µM
IC50 (U-87 MG): 6.76 µM
IC50 (MDA-MB-231): 5.26 µM
IC50 (MDA-MB-468): 3.86 µM
SMILES: COc1ccc([N+](=O)[O-])c([S+]([O-])c2ccc(Cl)cc2)n1 (stereo not drawn) [Example 1, 2-((4-Chlorophenyl)sulfinyl)-6-methoxy-3-nitropyridine]
